# According to US6458384B2, “Pharmaceutical with predetermined activity profile” (priority 2000, dated 2002):
# Key:
# [1] = Release According to USP (USP Paddle, 50 rpm), 0.1 N HCl then phosphate buffer pH 6.8; type: physicochemical; settings: 0.1 N HCl 0-120 min, phosphate buffer pH 6.8 >120 min, 37° C.
# Description: The term “release profile” refers to the pattern of release of the respective pharmacologically active substance over time, that is, the amount released over time. This may be measured either in vivo, e.g. indirectly by measuring the blood concentration, or preferably ex vivo, e.g. by the USP paddle method that allows for determination of the dissolution rate of the substance. […] Samples are withdrawn for determination of the amount of substance released in intervals of e.g. 30 or 60 min an analysed, e.g. spectrophotometrically, for example at 272 nm for caffeine, and/or using HPLC methods. A preferred method is described in the examples that may be used in analogy for other pharmaceuticals according to the invention. Preferred methods for analyzing blood or plasma levels of compounds are also described in the examples—analogous methods can be used for different active substances and are known int the art or easily derivable from the art. Where not indicated otherwise, percentages or other relative indications of amounts are given on a weight by weight (w:w) basis. The dissolution rate determination using the USP paddle apparatus has already been described above. The attrition rate of tablet cores for subsequent film-coating is preferably determined under standard conditions in a friabilator. The rate of attrition, i.e. the friability, is calculated. […] The crushing strength of tablets is determined in a tablet hardness tester (N=10). [table] [table] [table]
# [2] = USP paddle test in phosphate buffer pH 6.8 of ethylcellulose-coated caffeine tablets; type: physicochemical
# Description: The term “release profile” refers to the pattern of release of the respective pharmacologically active substance over time, that is, the amount released over time. This may be measured either in vivo, e.g. indirectly by measuring the blood concentration, or preferably ex vivo, e.g. by the USP paddle method that allows for determination of the dissolution rate of the substance. For example, a USP paddle apparatus operating at 37° C. and 50 rpm ist used and the preparations are tested in (e.g. 900 ml) artificial intestinal fluid, e.g. phosphate buffer pH 6.8; artificial gastric juice, e.g. 0.1 N HCl; or water. Samples are withdrawn for determination of the amount of substance released in intervals of e.g. 30 or 60 min an analysed, e.g. spectrophotometrically, for example at 272 nm for caffeine, and/or using HPLC methods.
smiles,measurement,setting,value
Cn1c(=O)c2c(ncn2C)n(C)c1=O [Caffeine],"Accumulated rel, Time (min) 15","[1]; Example 1 sachet formulation, 15 min",0.0%
same,"Accumulated rel, Time (min) 30","[1]; Example 1 sachet formulation, 30 min",0.0%
same,"Accumulated rel, Time (min) 60","[1]; Example 1 sachet formulation, 60 min",0.0%
same,"Accumulated rel, Time (min) 120","[1]; Example 1 sachet formulation, 120 min",0.0%
same,"Accumulated rel, Time (min) 180","[1]; Example 1 sachet formulation, 180 min",0.0%
same,"Accumulated rel, Time (min) 240","[1]; Example 1 sachet formulation, 240 min",0.0%
same,"Accumulated rel, Time (min) 300","[1]; Example 1 sachet formulation, 300 min",0.0%
same,"Accumulated rel, Time (min) 330","[1]; Example 1 sachet formulation, 330 min",87.0%
same,"Accumulated rel, Time (min) 360","[1]; Example 1 sachet formulation, 360 min",99.0%
same,"Accumulated rel, Time (min) 420","[1]; Example 1 sachet formulation, 420 min",99.5%
same,"Accumulated rel, Time (min) 15","[1]; Example 2 tablet formulation, 15 min",0.0%
same,"Accumulated rel, Time (min) 30","[1]; Example 2 tablet formulation, 30 min",0.0%
same,"Accumulated rel, Time (min) 60","[1]; Example 2 tablet formulation, 60 min",0.0%
same,"Accumulated rel, Time (min) 120","[1]; Example 2 tablet formulation, 120 min",0.0%
same,"Accumulated rel, Time (min) 180","[1]; Example 2 tablet formulation, 180 min",0.0%
same,"Accumulated rel, Time (min) 240","[1]; Example 2 tablet formulation, 240 min",0.0%
same,"Accumulated rel, Time (min) 300","[1]; Example 2 tablet formulation, 300 min",15.0%
same,"Accumulated rel, Time (min) 330","[1]; Example 2 tablet formulation, 330 min",89.3%
same,"Accumulated rel, Time (min) 360","[1]; Example 2 tablet formulation, 360 min",99.5%
same,"Accumulated rel, Time (min) 420","[1]; Example 2 tablet formulation, 420 min",99.7%
same,"Accumulated release, Time (min) 15","[1]; Example 3 tablet formulation, 15 min",0.0%
same,"Accumulated release, Time (min) 30","[1]; Example 3 tablet formulation, 30 min",0.0%
same,"Accumulated release, Time (min) 60","[1]; Example 3 tablet formulation, 60 min",0.0%
same,"Accumulated release, Time (min) 120","[1]; Example 3 tablet formulation, 120 min",0.0%
same,"Accumulated release, Time (min) 180","[1]; Example 3 tablet formulation, 180 min",0.0%
same,"Accumulated release, Time (min) 240","[1]; Example 3 tablet formulation, 240 min",0.0%
same,"Accumulated release, Time (min) 300","[1]; Example 3 tablet formulation, 300 min",5.3%
same,"Accumulated release, Time (min) 330","[1]; Example 3 tablet formulation, 330 min",85.6%
same,"Accumulated release, Time (min) 360","[1]; Example 3 tablet formulation, 360 min",99.0%
same,"Accumulated release, Time (min) 420","[1]; Example 3 tablet formulation, 420 min",99.2%
same,time for releasing the complete amount of caffeine after release starts,"[2]; Example 5 ethylcellulose-coated tablets, phosphate buffer pH 6.8, 5 out of six tested tablets",≤ 2 h
same,start of caffeine release after melatonin release,"[2]; Example 5 test preparation: coated gelatine capsule with 6 caffeine tablets and 0.5 mg melatonin, stated from the properties of the tablets",approximately 420 min
